According to ChEMBL document CHEMBL2384968, “Characterization of maleimide-based glycogen synthase kinase-3 (GSK-3) inhibitors as stimulators of steroidogenesis” (J Med Chem, 2013):
pIC50: −log10 of the molar value. Converted amounts (≈) assume the structure as drawn.

How the values were obtained:
[1] = Cytotoxicity against mouse MA-10 cells at 0.1 to 100 uM after 2 hrs by MTT assay; format: cell-based; details: ma-10, 2 h
[2] = biological target: Glycogen synthase kinase-3 beta (Homo sapiens, UniProt P49841); assay: Inhibition of human GSK3beta-mediated YRRAAVPPSPSLSRHSSPHQ(pS)EDEEE phosphorylation
Glycogen synthase kinase-3 beta, sequence (P49841 whole entry): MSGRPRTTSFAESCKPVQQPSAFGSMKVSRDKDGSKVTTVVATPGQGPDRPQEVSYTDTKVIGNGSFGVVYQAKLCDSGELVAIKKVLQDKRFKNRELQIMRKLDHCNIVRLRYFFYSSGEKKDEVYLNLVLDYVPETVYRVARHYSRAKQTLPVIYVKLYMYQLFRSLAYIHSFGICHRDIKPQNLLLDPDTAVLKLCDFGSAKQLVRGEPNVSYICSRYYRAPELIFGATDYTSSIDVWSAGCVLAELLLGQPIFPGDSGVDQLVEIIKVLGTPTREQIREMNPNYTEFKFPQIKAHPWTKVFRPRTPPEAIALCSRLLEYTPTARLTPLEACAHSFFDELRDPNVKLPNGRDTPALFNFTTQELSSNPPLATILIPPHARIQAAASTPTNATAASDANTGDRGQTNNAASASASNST

[3] = Cytotoxicity against mouse MA-10 cells at 100 uM after 2 hrs by MTT assay; format: cell-based; details: ma-10, 2 h
[4] = Kinetic aqueous solubility of the compound by HPLC analysis; format: physicochemical; details: read-out: Kinetic_solubility

Compound | Activity [1] | pIC50 [2] | Activity [3] | solubility kinetic [4] [µg/mL]
O=C1NC(=O)C(c2cn3c4c(cc(Br)cc24)CNCC3)=C1c1coc2ccccc12 | Toxic | 7.94 | Toxic | –
COCCc1cccc2c(C3=C(c4coc5ccccc45)C(=O)NC3=O)cn(C)c12 | Non-toxic | 7.95 | Non-toxic | –
Cn1cc(C2=C(c3coc4ccccc34)C(=O)NC2=O)c2cccc(CCOC(C)(C)C)c21 | – | 6.83 | – | –
O=C1NC(=O)C(c2cn3c4c(cccc24)CNCC3)=C1c1coc2ccccc12 | – | 8.38 | – | 240 (≈ 626 µM)
Cn1cc(C2=C(c3coc4ccccc34)C(=O)NC2=O)c2cccnc21 | – | 7.75 | – | –
COCCc1cccc2c(C3=C(c4coc5ccccc45)C(=O)NC3=O)cn(CCOC)c12 | Toxic | 6.94 | Toxic | –
O=C1NC(=O)C(c2cn3c4c(cccc24)CN(C(=O)Cc2ccncc2)CC3)=C1c1coc2ccccc12 | Toxic | 9.23 | Toxic | –
O=C1NC(=O)C(c2cn(CCO)c3ccc(Br)cc23)=C1c1coc2ccccc12 | – | 7.67 | – | –
O=C1NC(=O)C(c2cn3c4c(cccc24)CN(C(=O)c2cnccn2)CC3)=C1c1coc2ccccc12 | Toxic | 9.70 | Toxic | –
O=C1NC(=O)C(c2cn3c4c(cc(F)cc24)CNCC3)=C1c1coc2ccccc12 | Toxic | 8.43 | Toxic | –
Cn1cc(C2=C(c3cnc4ccccn34)C(=O)NC2=O)c2cc(Br)ccc21 | Non-toxic | 9.06 | – | 35 (≈ 83.1 µM)
COCCn1cc(C2=C(c3coc4ccccc34)C(=O)NC2=O)c2cc(OC)ncc21 | – | 6.90 | – | –
Cn1cc(C2=C(c3cnc4ccccn34)C(=O)NC2=O)c2cc3c(cc21)OCO3 | – | 8.28 | – | –
COc1cc2c(C3=C(c4coc5ccccc45)C(=O)NC3=O)cn(C)c2cn1 | Non-toxic | 7.18 | – | –
COCCn1cc(C2=C(c3coc4ccccc34)C(=O)NC2=O)c2cc(Br)cnc21 | Non-toxic | 7.60 | Non-toxic | –
O=C1NC(=O)C(c2cn(CCO)c3ccc(F)cc23)=C1c1coc2ccccc12 | – | 8.32 | – | –

Compound | Activity [1] | pIC50 [2] | Activity [3] | solubility kinetic [4] [µg/mL]
O=C1NC(=O)C(c2cn3c4c(cc(F)cc24)CN(C(=O)N2CCOCC2)CC3)=C1c1coc2ccccc12 | Toxic | 10.89 | Toxic | –
CNCCCn1cc(C2=C(c3coc4ccccc34)C(=O)NC2=O)c2cc(Br)ccc21 | – | 6.39 | – | –
O=C1NC(=O)C(c2cn3c4c(cc(F)cc24)CN(C(=O)N2CCCCC2)CC3)=C1c1coc2ccccc12 | Non-toxic | 8.72 | – | –
COCCn1cc(C2=C(c3coc4ccccc34)C(=O)NC2=O)c2cc(F)c(F)cc21 | Toxic | 7.45 | Toxic | –
COCCn1cc(C2=C(c3coc4ccccc34)C(=O)NC2=O)c2cc(F)ccc21 | – | 7.40 | – | –
COCCn1cc(C2=C(c3coc4ccccc34)C(=O)NC2=O)c2cccnc21 | Toxic | 7.24 | Toxic | –
NCCn1cc(C2=C(c3coc4ccccc34)C(=O)NC2=O)c2cc(Br)ccc21 | – | 6.94 | – | 180 (≈ 400 µM)
NCCn1cc(C2=C(c3coc4ccccc34)C(=O)NC2=O)c2cc(F)ccc21 | – | 7.39 | – | –
CNCCCn1cc(C2=C(c3coc4ccccc34)C(=O)NC2=O)c2cc(F)ccc21 | – | 6.69 | – | –
Cn1cc(C2=C(c3coc4ccccc34)C(=O)NC2=O)c2cc(Br)cnc21 | Non-toxic | 8.28 | Non-toxic | –
O=C1NC(=O)C(c2cn(CCCO)c3ccc(F)cc23)=C1c1coc2ccccc12 | – | 7.82 | – | –
COCCn1cc(C2=C(c3coc4ccccc34)C(=O)NC2=O)c2ccccc21 | Non-toxic | 7.70 | Non-toxic | –
O=C1NC(=O)C(c2cn3c4c(cc(F)cc24)CN(C(=O)N2CCC(N4CCCCC4)CC2)CC3)=C1c1coc2ccccc12 | Toxic | 9.28 | Toxic | –
Cn1cc(C2=C(c3coc4ccccc34)C(=O)NC2=O)c2cc(Br)ccc21 | Non-toxic | – | Non-toxic | –
COCCn1cc(C2=C(c3coc4ccccc34)C(=O)NC2=O)c2cc(Br)ccc21 | – | 7.08 | – | –
